Assay results published in PubChem BioAssay (NCI).
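Five concentrations, 48 hours, 96-well plates. Abbreviation: GI50, concentration required for 50% inhibition of growth. The concentration for full growth arrest is given as TGI.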

What was measured:
Assay in all cases: DTP human tumour cell line panel, 48 h
HCT-116 colon = test system: HCT-116 colon
CAKI-1 renal = test system: CAKI-1 renal
M14 melanoma = test system: M14 melanoma
COLO 205 colon = test system: COLO 205 colon
ACHN renal = test system: ACHN renal
OVCAR-3 ovarian = test system: OVCAR-3 ovarian
KM12 colon = test system: KM12 colon
NCI/ADR-RES ovarian = test system: NCI/ADR-RES ovarian
SF-539 CNS = test system: SF-539 CNS
SNB-75 CNS = test system: SNB-75 CNS
OVCAR-4 ovarian = test system: OVCAR-4 ovarian
HCT-15 colon = test system: HCT-15 colon
SK-MEL-5 melanoma = test system: SK-MEL-5 melanoma
OVCAR-8 ovarian = test system: OVCAR-8 ovarian
NCI-H226 lung = test system: NCI-H226 lung
MDA-MB-231 breast = test system: MDA-MB-231 breast
TK-10 renal = test system: TK-10 renal
SW-620 colon = test system: SW-620 colon
EKVX NSCLC = test system: EKVX NSCLC
PC-3 prostate = test system: PC-3 prostate
SK-MEL-28 melanoma = test system: SK-MEL-28 melanoma
A549 NSCLC = test system: A549 NSCLC
SF-295 CNS = test system: SF-295 CNS
U251 CNS = test system: U251 CNS
MDA-N = test system: MDA-N
RXF 393 renal = test system: RXF 393 renal
SF-268 CNS = test system: SF-268 CNS
SN12C renal = test system: SN12C renal
DU-145 prostate = test system: DU-145 prostate
NCI-H23 lung = test system: NCI-H23 lung
MDA-MB-435 = test system: MDA-MB-435
HOP-92 NSCLC = test system: HOP-92 NSCLC
SNB-19 CNS = test system: SNB-19 CNS
OVCAR-5 ovarian = test system: OVCAR-5 ovarian
HT29 colon = test system: HT29 colon
IGROV1 ovarian = test system: IGROV1 ovarian
K-562 leukemia = test system: K-562 leukemia
MALME-3M melanoma = test system: MALME-3M melanoma
HS 578T breast = test system: HS 578T breast
NCI-H460 lung = test system: NCI-H460 lung
BT-549 breast = test system: BT-549 breast
HL-60(TB) leukemia = test system: HL-60(TB) leukemia
NCI-H522 lung = test system: NCI-H522 lung
CCRF-CEM leukemia = test system: CCRF-CEM leukemia
SK-MEL-2 melanoma = test system: SK-MEL-2 melanoma
SR leukemia = test system: SR leukemia
HCC-2998 colon = test system: HCC-2998 colon
RPMI-8226 leukemia = test system: RPMI-8226 leukemia
SK-OV-3 ovarian = test system: SK-OV-3 ovarian
UO-31 renal = test system: UO-31 renal
MOLT-4 leukemia = test system: MOLT-4 leukemia
786-0 renal = test system: 786-0 renal
T-47D breast = test system: T-47D breast
UACC-62 melanoma = test system: UACC-62 melanoma
UACC-257 melanoma = test system: UACC-257 melanoma
A498 renal = test system: A498 renal
MCF7 breast = test system: MCF7 breast
HOP-62 NSCLC = test system: HOP-62 NSCLC
LOX IMVI melanoma = test system: LOX IMVI melanoma

CCC1=[N+]([O-])C(C)(C)NC1(C)C
TGI (HCT-116 colon): > 10 µM | TGI (CAKI-1 renal): > 10 µM | TGI (M14 melanoma): > 10 µM | TGI (COLO 205 colon): > 10 µM | TGI (ACHN renal): > 10 µM | TGI (OVCAR-3 ovarian): > 10 µM | TGI (KM12 colon): > 10 µM | TGI (NCI/ADR-RES ovarian): > 10 µM | TGI (SF-539 CNS): > 10 µM | TGI (SNB-75 CNS): > 10 µM | TGI (OVCAR-4 ovarian): > 10 µM | TGI (HCT-15 colon): > 10 µM | TGI (SK-MEL-5 melanoma): > 10 µM | TGI (OVCAR-8 ovarian): > 10 µM | TGI (NCI-H226 lung): > 10 µM | TGI (MDA-MB-231 breast): > 10 µM | TGI (TK-10 renal): > 10 µM | TGI (SW-620 colon): > 10 µM | TGI (EKVX NSCLC): > 10 µM | TGI (PC-3 prostate): > 10 µM | TGI (SK-MEL-28 melanoma): > 10 µM | TGI (A549 NSCLC): > 10 µM | TGI (SF-295 CNS): > 10 µM | TGI (U251 CNS): > 10 µM | TGI (MDA-N): > 10 µM | TGI (RXF 393 renal): > 10 µM | TGI (SF-268 CNS): > 10 µM | TGI (SN12C renal): > 10 µM | TGI (DU-145 prostate): > 10 µM | TGI (NCI-H23 lung): > 10 µM | TGI (MDA-MB-435): > 10 µM | TGI (HOP-92 NSCLC): > 10 µM | TGI (SNB-19 CNS): > 10 µM | TGI (OVCAR-5 ovarian): > 10 µM | TGI (HT29 colon): > 10 µM | TGI (IGROV1 ovarian): > 10 µM

Oc1c(CN2CCN(c3ccccc3F)CC2)cc(Br)c2cccnc12
GI50 (HCT-116 colon): 0.546 µM | TGI (HCT-116 colon): > 40.7 µM | GI50 (CAKI-1 renal): 0.376 µM | TGI (CAKI-1 renal): 9.26 µM | GI50 (M14 melanoma): 0.924 µM | TGI (M14 melanoma): 16.5 µM | GI50 (K-562 leukemia): 0.366 µM | TGI (K-562 leukemia): 19.6 µM | GI50 (COLO 205 colon): 16.1 µM | TGI (COLO 205 colon): 55 µM | GI50 (ACHN renal): 0.495 µM | TGI (ACHN renal): 13.7 µM | GI50 (OVCAR-3 ovarian): 0.576 µM | TGI (OVCAR-3 ovarian): 21.2 µM | GI50 (KM12 colon): 0.672 µM | TGI (KM12 colon): > 100 µM | GI50 (MALME-3M melanoma): 1.89 µM | TGI (MALME-3M melanoma): 9.46 µM | GI50 (NCI/ADR-RES ovarian): 0.224 µM | TGI (NCI/ADR-RES ovarian): 21.9 µM | GI50 (HS 578T breast): 1.82 µM | TGI (HS 578T breast): 55.5 µM | GI50 (SF-539 CNS): 1.02 µM | TGI (SF-539 CNS): 5.6 µM | GI50 (NCI-H460 lung): 0.4 µM | TGI (NCI-H460 lung): 9.26 µM | GI50 (SNB-75 CNS): 1.91 µM | TGI (SNB-75 CNS): > 100 µM | GI50 (HCT-15 colon): 0.143 µM | TGI (HCT-15 colon): > 100 µM | GI50 (SK-MEL-5 melanoma): 0.616 µM | TGI (SK-MEL-5 melanoma): > 21.4 µM | GI50 (OVCAR-8 ovarian): 0.607 µM | TGI (OVCAR-8 ovarian): 14.5 µM | GI50 (NCI-H226 lung): 1.17 µM | TGI (NCI-H226 lung): 9.5 µM | GI50 (BT-549 breast): 2.02 µM | TGI (BT-549 breast): > 100 µM | GI50 (MDA-MB-231 breast): 0.902 µM | TGI (MDA-MB-231 breast): 15.2 µM | GI50 (TK-10 renal): 5.45 µM | TGI (TK-10 renal): 29 µM | GI50 (SW-620 colon): 0.47 µM | TGI (SW-620 colon): 20.2 µM | GI50 (HL-60(TB) leukemia): 0.392 µM | TGI (HL-60(TB) leukemia): 2.34 µM | GI50 (NCI-H522 lung): 0.662 µM | TGI (NCI-H522 lung): 5.05 µM | GI50 (PC-3 prostate): 0.807 µM | TGI (PC-3 prostate): 31.7 µM | GI50 (CCRF-CEM leukemia): 0.355 µM | TGI (CCRF-CEM leukemia): 6.35 µM | GI50 (SK-MEL-2 melanoma): 7.65 µM | TGI (SK-MEL-2 melanoma): > 51.6 µM | GI50 (SR leukemia): 0.419 µM | TGI (SR leukemia): 5.17 µM | GI50 (SK-MEL-28 melanoma): 2.49 µM | TGI (SK-MEL-28 melanoma): > 100 µM | GI50 (A549 NSCLC): 0.546 µM | TGI (A549 NSCLC): 13 µM | GI50 (HCC-2998 colon): 2.87 µM | TGI (HCC-2998 colon): 15.1 µM | GI50 (RPMI-8226 leukemia): 0.791 µM | TGI (RPMI-8226 leukemia): 15.6 µM | GI50 (SK-OV-3 ovarian): 1.45 µM | TGI (SK-OV-3 ovarian): 27.9 µM | GI50 (UO-31 renal): 0.259 µM | TGI (UO-31 renal): 3.58 µM | GI50 (SF-295 CNS): 2.92 µM | TGI (SF-295 CNS): 42.1 µM | GI50 (U251 CNS): 0.529 µM | TGI (U251 CNS): 11.1 µM | GI50 (RXF 393 renal): 2.05 µM | TGI (RXF 393 renal): 19.1 µM | GI50 (SF-268 CNS): 0.858 µM | TGI (SF-268 CNS): > 100 µM | GI50 (MOLT-4 leukemia): 0.743 µM | TGI (MOLT-4 leukemia): 5.92 µM | GI50 (786-0 renal): 2.42 µM | TGI (786-0 renal): 12.6 µM | GI50 (SN12C renal): 0.987 µM | TGI (SN12C renal): 20.5 µM | GI50 (DU-145 prostate): 1.71 µM | TGI (DU-145 prostate): 17.7 µM | GI50 (NCI-H23 lung): 1.33 µM | TGI (NCI-H23 lung): 25.2 µM | GI50 (MDA-MB-435): 1.31 µM | TGI (MDA-MB-435): > 100 µM | GI50 (HOP-92 NSCLC): 0.896 µM | TGI (HOP-92 NSCLC): 19.8 µM | GI50 (SNB-19 CNS): 1.14 µM | TGI (SNB-19 CNS): > 100 µM | GI50 (T-47D breast): 0.565 µM | TGI (T-47D breast): 60.5 µM | GI50 (UACC-62 melanoma): 0.631 µM | TGI (UACC-62 melanoma): 4.09 µM | GI50 (UACC-257 melanoma): 2.06 µM | TGI (UACC-257 melanoma): 24.1 µM | GI50 (OVCAR-5 ovarian): 5.36 µM | TGI (OVCAR-5 ovarian): 49 µM | GI50 (HT29 colon): 11.3 µM | TGI (HT29 colon): 40.5 µM | GI50 (A498 renal): 0.695 µM | TGI (A498 renal): 9.23 µM | GI50 (MCF7 breast): 0.473 µM | TGI (MCF7 breast): 12.1 µM | GI50 (HOP-62 NSCLC): 0.596 µM | TGI (HOP-62 NSCLC): 14.2 µM | GI50 (LOX IMVI melanoma): 0.676 µM | TGI (LOX IMVI melanoma): 10.3 µM | GI50 (IGROV1 ovarian): 0.808 µM | TGI (IGROV1 ovarian): 14.5 µM
